Article PMC6918900, “Concentration-Dependent Activity of Hydromethylthionine on Cognitive Decline and Brain Atrophy in Mild to Moderate Alzheimer’s Disease” (Journal of Alzheimer's Disease, 2019)
“And” between values parts separate entries of the source, which are not always exact repeats. Identical values can stand only once. Like-named read-outs stand apart in the source and are kept apart here.

Columns and labels:
[1] = elderly humans; cited from earlier work
[2] = Estimated steady state brain concentration of LMT; design: species or system human; conditions: corresponding to 0.3–0.8 ng/ml in plasma
[3] = tested on: tau transgenic mouse models; conditions: dose of 9 mg/kg/day; cited from earlier work
[4] = mice; cited from earlier work
[5] = tested on: tangle filaments isolated from AD brain tissues; design: method as in PMID 25759392, PMID 8855335; conditions: at a similar molar ratio (tau:LMT 1 : 0.1); cited from earlier work
[6] = tested on: electron transfer chain; design: method as in PMID 17928358, PMID 22419586; conditions: supplementary electron carrier in the electron transfer chain; cited from earlier work
[7] = tested on: autophagy; design: method as in PMID 26572258, PMID 22361619; conditions: cited from earlier work
[8] = earlier Phase II study; cited from earlier work

Compound: CN(C)c1ccc2c(c1)Sc1cc(N(C)C)ccc1N2 [LMT, leuco-methylthioninium]
- half-life [1]: 37 h
- estimated steady state concentration in the brain [2]: 6–16 ng/ml and 0.021–0.056 μM
- effect on tau aggregation pathology and behavioral deficits [3]: reduces tau aggregation pathology and associated behavioral deficits
- half-life [4]: 4 h

Compound: CN(C)c1ccc2nc3ccc(=[N+](C)C)cc-3sc2c1 [MT moiety, methylthioninium]
- effect on proteolytic stability of tangle filaments [5]: reverse the proteolytic stability of tangle filaments
- concentrations enhancing mitochondrial activity [6]: 10 to 100 nM
- concentration range enhancing autophagy [7]: 10 to 20 nM

Compound: CN(C)c1ccc2nc3ccc(=[N+](C)C)cc-3sc2c1 [MTC, methylthioninium chloride]
- minimum effective dose [8]: 138 mg/day
